Columns and labels:
[1] = target: T1, Dual specificity tyrosine-phosphorylation-regulated kinase 4 (Homo sapiens) (UniProt Q9NR20); assay: Inhibition of human DYRK4 at 500 nM by HotSpot assay relative to control
T1 sequence (whole entry): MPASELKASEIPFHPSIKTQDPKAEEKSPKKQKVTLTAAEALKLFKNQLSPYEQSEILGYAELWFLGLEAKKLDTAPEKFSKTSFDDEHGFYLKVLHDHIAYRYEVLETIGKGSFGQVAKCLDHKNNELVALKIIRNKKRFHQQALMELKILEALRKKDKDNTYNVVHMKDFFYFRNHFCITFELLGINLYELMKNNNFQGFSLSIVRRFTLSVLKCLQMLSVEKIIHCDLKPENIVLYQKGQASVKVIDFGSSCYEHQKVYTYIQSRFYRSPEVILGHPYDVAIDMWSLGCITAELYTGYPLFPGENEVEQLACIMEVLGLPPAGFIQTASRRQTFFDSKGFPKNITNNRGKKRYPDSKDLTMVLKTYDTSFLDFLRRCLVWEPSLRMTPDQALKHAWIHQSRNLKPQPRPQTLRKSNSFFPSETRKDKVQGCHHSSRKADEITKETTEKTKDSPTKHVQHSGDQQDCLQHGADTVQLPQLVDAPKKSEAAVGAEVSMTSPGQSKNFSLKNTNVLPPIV

[2] = target: MAP/microtubule affinity-regulating kinase 3 (Homo sapiens) (UniProt P27448); assay: Inhibition of human MARK3 at 500 nM by HotSpot assay relative to control
[3] = target: Phosphorylase b kinase gamma catalytic chain, skeletal muscle/heart isoform (Homo sapiens) (UniProt Q16816); assay: Inhibition of human PHKg1 at 500 nM by HotSpot assay relative to control
[4] = target: Ephrin type-A receptor 7 (Homo sapiens) (UniProt Q15375); assay: Inhibition of human EPHA7 at 500 nM by HotSpot assay relative to control
[5] = Inhibition of inactive form of human Insulin receptor (978 to 1283 residues) C981S mutant kinase domain expressed in baculovirus infected Sf9 cells incubated for 1 hr by [gamma-33P]ATP assay
[6] = target: Insulin receptor-related protein (Homo sapiens) (UniProt P14616); assay: Inhibition of human IRR at 500 nM by HotSpot assay relative to control
[7] = target: Dual specificity protein kinase CLK2 (Homo sapiens) (UniProt P49760); assay: Inhibition of human CLK2 at 500 nM by HotSpot assay relative to control
[8] = target: G protein-coupled receptor kinase 5 (Homo sapiens) (UniProt P34947); assay: Inhibition of human GRK5 at 500 nM by HotSpot assay relative to control
[9] = target: Dual specificity mitogen-activated protein kinase kinase 2 (Homo sapiens) (UniProt P36507); assay: Inhibition of human MEK2 at 500 nM by HotSpot assay relative to control
[10] = target: Serine/threonine-protein kinase MRCK beta (Homo sapiens) (UniProt Q9Y5S2); assay: Inhibition of human CDC42BPB at 500 nM by HotSpot assay relative to control
[11] = target: Tyrosine-protein kinase ABL2 (Homo sapiens) (UniProt P42684); assay: Inhibition of human ABL2 at 500 nM by HotSpot assay relative to control
[12] = target: T2, Beta-adrenergic receptor kinase 1 (Homo sapiens) (UniProt P25098); assay: Inhibition of human GRK2 at 500 nM by HotSpot assay relative to control
T2 sequence (whole entry): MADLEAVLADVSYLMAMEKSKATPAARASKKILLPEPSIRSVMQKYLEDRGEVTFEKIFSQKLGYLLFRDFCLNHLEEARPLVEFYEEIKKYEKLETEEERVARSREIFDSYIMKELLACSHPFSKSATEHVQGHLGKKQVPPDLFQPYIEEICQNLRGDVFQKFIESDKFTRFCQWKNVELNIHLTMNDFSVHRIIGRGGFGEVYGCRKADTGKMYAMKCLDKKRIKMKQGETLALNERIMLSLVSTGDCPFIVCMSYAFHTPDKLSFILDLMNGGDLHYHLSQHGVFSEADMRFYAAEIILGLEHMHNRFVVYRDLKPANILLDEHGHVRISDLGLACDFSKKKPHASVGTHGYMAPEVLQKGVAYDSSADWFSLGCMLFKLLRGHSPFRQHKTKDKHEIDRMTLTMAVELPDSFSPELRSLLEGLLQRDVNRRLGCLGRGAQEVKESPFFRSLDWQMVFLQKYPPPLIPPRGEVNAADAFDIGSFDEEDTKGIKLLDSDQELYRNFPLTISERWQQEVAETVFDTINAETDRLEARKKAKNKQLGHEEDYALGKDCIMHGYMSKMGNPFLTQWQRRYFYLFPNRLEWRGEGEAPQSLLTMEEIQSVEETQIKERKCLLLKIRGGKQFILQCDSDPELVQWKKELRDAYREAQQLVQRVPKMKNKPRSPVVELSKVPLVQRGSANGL

[13] = target: T3, Testis-specific serine/threonine-protein kinase 2 (Homo sapiens) (UniProt Q96PF2); assay: Inhibition of human TSSK2 at 500 nM by HotSpot assay relative to control
T3 sequence (whole entry): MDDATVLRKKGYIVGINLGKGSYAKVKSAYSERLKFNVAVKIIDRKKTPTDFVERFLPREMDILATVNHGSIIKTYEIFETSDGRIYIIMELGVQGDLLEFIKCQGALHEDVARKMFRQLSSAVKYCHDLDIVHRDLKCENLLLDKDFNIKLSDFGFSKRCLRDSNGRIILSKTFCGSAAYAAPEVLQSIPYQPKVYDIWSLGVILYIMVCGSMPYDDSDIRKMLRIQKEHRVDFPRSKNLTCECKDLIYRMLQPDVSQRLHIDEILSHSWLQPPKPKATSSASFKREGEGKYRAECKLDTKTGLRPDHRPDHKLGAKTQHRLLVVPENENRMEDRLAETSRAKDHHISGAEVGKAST

[14] = target: T4, Serine/threonine-protein kinase NLK (Homo sapiens) (UniProt Q9UBE8); assay: Inhibition of human NLK at 500 nM by HotSpot assay relative to control
T4 sequence (whole entry): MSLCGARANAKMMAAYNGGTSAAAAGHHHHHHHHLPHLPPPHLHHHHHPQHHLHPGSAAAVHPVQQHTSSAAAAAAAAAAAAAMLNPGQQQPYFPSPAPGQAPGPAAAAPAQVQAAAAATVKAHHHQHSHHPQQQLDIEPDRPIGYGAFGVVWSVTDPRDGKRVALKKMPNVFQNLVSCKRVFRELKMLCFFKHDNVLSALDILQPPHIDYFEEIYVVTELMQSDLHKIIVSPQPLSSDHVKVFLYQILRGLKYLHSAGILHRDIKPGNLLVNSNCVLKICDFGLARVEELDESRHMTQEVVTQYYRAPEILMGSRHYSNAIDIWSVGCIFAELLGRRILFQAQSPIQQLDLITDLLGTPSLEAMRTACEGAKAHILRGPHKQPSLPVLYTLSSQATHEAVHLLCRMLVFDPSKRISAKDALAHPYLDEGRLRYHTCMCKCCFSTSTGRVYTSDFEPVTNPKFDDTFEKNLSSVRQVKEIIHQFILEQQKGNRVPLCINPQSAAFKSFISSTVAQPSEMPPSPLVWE

Chain of Dual specificity protein kinase CLK2 (Homo sapiens) (P49760 whole entry, looked up): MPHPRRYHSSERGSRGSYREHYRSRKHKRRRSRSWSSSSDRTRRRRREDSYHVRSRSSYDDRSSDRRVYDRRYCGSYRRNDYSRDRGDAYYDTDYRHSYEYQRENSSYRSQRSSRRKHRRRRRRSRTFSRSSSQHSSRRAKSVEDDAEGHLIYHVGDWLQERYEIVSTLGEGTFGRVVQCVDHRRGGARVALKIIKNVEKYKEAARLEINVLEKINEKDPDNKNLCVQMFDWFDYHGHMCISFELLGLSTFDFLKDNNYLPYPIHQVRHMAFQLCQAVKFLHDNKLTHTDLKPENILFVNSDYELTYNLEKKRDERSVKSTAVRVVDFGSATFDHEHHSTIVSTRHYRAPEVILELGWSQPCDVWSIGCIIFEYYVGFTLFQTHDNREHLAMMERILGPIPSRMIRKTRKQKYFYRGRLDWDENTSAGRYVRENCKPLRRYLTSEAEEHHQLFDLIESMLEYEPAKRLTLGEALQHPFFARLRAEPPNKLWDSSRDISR
Chain of Ephrin type-A receptor 7 (Homo sapiens) (Q15375 28-998 limits assumed): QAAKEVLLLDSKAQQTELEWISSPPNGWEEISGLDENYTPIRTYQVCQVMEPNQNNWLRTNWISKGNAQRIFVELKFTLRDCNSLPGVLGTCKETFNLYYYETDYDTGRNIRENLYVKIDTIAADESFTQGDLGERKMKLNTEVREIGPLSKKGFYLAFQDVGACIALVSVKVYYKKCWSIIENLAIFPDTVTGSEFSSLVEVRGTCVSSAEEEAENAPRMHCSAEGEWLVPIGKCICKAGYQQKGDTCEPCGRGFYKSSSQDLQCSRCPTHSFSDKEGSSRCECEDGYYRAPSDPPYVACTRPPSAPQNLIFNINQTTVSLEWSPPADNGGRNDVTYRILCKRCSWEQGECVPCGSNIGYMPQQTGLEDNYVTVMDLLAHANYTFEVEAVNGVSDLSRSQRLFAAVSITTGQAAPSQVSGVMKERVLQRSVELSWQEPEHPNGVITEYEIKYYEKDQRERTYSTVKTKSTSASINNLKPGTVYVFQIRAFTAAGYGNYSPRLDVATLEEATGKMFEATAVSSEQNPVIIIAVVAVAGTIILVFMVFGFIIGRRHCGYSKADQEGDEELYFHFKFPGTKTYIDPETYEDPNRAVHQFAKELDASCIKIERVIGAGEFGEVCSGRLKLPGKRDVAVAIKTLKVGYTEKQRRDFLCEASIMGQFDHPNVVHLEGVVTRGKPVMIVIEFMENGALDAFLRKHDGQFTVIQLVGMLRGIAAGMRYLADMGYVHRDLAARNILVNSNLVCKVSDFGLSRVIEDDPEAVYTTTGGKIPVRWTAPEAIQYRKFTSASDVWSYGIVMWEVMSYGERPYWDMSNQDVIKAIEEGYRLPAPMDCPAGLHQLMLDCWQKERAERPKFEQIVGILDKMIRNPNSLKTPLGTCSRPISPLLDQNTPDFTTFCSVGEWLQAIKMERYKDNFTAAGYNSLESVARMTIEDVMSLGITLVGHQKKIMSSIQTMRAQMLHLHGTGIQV
Chain of G protein-coupled receptor kinase 5 (Homo sapiens) (P34947 whole entry, looked up): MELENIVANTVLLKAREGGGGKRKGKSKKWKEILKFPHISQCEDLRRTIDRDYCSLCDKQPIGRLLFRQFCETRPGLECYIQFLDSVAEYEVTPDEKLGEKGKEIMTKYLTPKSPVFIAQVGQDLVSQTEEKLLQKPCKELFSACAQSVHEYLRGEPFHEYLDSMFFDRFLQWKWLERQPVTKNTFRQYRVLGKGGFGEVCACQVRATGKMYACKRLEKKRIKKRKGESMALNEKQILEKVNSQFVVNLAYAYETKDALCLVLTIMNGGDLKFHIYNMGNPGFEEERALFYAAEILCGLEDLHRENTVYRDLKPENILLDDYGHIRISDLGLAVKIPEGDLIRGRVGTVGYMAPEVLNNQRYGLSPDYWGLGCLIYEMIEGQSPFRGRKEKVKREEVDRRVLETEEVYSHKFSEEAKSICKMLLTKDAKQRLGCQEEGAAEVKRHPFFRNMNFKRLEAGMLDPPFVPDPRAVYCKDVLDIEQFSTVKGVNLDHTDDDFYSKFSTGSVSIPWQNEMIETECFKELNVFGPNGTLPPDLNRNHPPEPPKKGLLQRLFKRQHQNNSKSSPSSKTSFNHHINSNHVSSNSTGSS
Chain of Serine/threonine-protein kinase MRCK beta (Homo sapiens) (Q9Y5S2 whole entry): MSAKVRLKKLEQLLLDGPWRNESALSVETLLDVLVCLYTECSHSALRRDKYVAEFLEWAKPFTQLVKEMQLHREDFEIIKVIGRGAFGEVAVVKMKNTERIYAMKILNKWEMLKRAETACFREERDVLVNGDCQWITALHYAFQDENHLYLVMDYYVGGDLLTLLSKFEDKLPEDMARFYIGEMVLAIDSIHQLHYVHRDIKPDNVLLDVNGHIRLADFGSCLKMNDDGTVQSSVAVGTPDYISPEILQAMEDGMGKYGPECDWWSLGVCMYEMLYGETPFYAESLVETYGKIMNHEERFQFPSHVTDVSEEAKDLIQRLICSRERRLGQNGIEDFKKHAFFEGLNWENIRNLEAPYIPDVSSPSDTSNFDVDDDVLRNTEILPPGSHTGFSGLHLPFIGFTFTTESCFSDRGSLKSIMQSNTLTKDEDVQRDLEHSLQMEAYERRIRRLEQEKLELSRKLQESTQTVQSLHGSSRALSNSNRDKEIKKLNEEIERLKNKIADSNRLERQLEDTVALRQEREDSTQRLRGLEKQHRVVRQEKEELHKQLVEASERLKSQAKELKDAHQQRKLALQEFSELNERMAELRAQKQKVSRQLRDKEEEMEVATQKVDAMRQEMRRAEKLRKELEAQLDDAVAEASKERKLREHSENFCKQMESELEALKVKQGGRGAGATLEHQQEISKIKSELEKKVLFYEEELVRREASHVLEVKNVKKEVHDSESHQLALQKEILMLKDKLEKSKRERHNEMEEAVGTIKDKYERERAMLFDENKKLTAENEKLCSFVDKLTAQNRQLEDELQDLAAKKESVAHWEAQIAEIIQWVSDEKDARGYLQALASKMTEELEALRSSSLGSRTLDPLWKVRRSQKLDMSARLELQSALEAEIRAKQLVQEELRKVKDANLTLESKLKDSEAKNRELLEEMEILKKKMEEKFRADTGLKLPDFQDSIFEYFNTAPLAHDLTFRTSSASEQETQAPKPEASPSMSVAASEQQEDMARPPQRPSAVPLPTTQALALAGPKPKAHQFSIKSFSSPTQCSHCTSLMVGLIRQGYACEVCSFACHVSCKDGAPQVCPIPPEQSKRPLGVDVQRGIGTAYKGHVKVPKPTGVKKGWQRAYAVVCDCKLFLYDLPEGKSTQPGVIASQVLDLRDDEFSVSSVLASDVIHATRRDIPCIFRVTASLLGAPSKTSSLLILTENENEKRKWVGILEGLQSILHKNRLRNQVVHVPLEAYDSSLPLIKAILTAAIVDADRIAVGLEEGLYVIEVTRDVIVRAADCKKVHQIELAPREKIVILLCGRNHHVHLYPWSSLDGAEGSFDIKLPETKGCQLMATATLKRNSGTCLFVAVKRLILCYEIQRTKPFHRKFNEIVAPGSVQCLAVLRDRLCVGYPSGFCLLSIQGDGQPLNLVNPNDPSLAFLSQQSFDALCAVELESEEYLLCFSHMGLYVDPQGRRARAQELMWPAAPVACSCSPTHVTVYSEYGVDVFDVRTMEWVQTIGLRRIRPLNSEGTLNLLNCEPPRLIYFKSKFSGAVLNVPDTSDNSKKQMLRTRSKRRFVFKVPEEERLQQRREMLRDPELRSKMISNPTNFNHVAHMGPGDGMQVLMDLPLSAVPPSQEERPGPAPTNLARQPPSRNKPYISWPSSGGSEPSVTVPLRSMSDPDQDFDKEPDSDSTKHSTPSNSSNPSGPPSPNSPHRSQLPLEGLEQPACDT
Chain of Phosphorylase b kinase gamma catalytic chain, skeletal muscle/heart isoform (Homo sapiens) (Q16816 whole entry, looked up, canonical isoform): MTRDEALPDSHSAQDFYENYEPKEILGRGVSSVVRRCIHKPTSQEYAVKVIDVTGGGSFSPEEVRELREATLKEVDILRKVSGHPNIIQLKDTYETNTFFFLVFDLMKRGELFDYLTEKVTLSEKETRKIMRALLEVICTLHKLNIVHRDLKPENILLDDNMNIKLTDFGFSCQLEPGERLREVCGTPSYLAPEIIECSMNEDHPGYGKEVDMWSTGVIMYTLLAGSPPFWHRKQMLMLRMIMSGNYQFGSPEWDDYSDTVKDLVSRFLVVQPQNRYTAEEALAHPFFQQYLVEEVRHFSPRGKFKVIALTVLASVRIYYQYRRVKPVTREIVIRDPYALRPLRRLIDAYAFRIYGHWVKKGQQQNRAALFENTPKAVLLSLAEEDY
Chain of Dual specificity mitogen-activated protein kinase kinase 2 (Homo sapiens) (P36507 whole entry): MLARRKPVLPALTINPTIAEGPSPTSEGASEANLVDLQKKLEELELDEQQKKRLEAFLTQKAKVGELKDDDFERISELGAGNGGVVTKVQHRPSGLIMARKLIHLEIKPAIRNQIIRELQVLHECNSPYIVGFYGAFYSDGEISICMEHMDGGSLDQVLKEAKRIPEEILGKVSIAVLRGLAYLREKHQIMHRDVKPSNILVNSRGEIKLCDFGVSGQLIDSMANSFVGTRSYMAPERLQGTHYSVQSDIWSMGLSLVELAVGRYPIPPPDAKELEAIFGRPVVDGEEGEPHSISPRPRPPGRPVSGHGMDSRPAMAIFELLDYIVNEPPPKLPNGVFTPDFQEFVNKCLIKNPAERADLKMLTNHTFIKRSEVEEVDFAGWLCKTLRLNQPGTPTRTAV

| SMILES | inhibition [1] [%] | inhibition [2] [%] | inhibition [3] [%] | inhibition [4] [%] | IC50 [5] [µM] | inhibition [6] [%] | inhibition [7] [%] | inhibition [8] [%] | inhibition [9] [%] | inhibition [10] [%] | inhibition [11] [%] | inhibition [12] [%] | inhibition [13] [%] | inhibition [14] [%] |
| --- | --- | --- | --- | --- | --- | --- | --- | --- | --- | --- | --- | --- | --- | --- |
| Nc1n[nH]c2nnc(-c3c(-c4ccccc4)nn4ccccc34)cc12 | 4.67 | 0.66 | -0.96 | 0.55 | 5.4 | 4.29 | -1.46 | -6.2 | 0.62 | 6.62 | 42.5 | 4.99 | -4.17 | -2.21 |
| Oc1n[nH]c2nnc(-c3c(-c4ccccc4)nn4ccccc34)cc12 | 4.52 | -2.48 | -1.18 | 0.96 | 1.8 | 13.8 | 2.49 | -0.63 | 1.44 | 4.33 | 3.05 | 5.01 | -1.61 | -0.83 |

Reference: ChEMBL document CHEMBL5653615 (J Biol Chem, 2013)
